According to patent US12514859B2, “Pyrazole pyrimidine derivative and uses thereof” (Yissum Research Development Company of the Hebrew …, priority 2015, dated 2026):

Columns and labels:
[1] = tested on: p53, DNA damage response (γH2AX); experiment: p53 and DNA damage response activation in RKO cells (Western blot, primary screen and dose response); assay type: cell-based; details: 16 hours, Western blot, average value
Protocol: Primary Screen in RKO cells for compounds having typical CKIα inhibitory activity (β-catenin and p53 stabilization and histone H2AX phosphorylation; see Elyada et al, Nature 2011 Feb. 17; 470(7334):409-13; Pribluda et al, Cancer Cell 2013 Aug. 12; 24(2):242-56). RKO colorectal cells were incubated with 10 μM of each of the compounds for 16 hours at 37° C. Cells were washed with PBS and cell pellets were incubated with ice cold protein lysis buffer containing protease inhibitor cocktail (1/200; Calbiochem) and phosphatase inhibitors (20 mM p-nitrophenyl phosphate (PNPP), 20 mM β-glycerophosphate and 300 nM okadaic acid). Western blot analysis was performed by means of standard techniques. Blots were incubated with antibodies detecting β-catenin (1/2,500; BD Transduction), p53 (DO-1&1801 hybridoma mix; dilution of 1:20 of supernatants from each), CKIα (C-19; 1/1,000; Santa Cruz Biotechnology) and phospho-histoneH2AX (S139; 1/1,000; Millipore). Secondary antibodies were HRP-linked goat anti-mouse, goat anti-rabbit and rabbit anti-goat antibodies (all 1/10,000; Jackson). Blots were developed using ECL (GE Healthcare).
Active compounds were further analyzed in a dose-response experiment (FIGS. 1A and 1B). Similar to the primary screen, RKO cells were incubated with descending concentrations of each of the active compounds for 16 hours at 37° C. Cell extract isolation and Western Blot analysis were similar to the primary screen.
Table 1 provides quantified information for compounds of the invention in activation of p53 and DNA damage response (DDR) and β-catenin stabilization as an indicator of Wnt pathway activation. p53 activation was determined according to the degree of protein stabilization in several Western blot assays (Western blot examples are shown in FIGS. 1A and 1B). […] In contrast, A35 started stabilizing p53 at […], with maximal stabilization at […] (FIG. 1A, upper right panel) and thus received an average value of +++ for p53 activation.

[2] = tested on: AML mice (MLL-AF9); experiment: MLL-AF9 acute myeloid leukemia (AML) mouse model; assay type: in vivo; details: oral gavage 20 mg/kg for 3 days then 10 mg/kg/day for 6 days
Protocol: Generation of a mouse model of acute myeloid leukemia (AML) (FIG. 6) and treatment with the CKIα inhibitor A14 (FIGS. 7, 8 and 9) or A51 (FIGS. 11 and 12). To generate the MLL-AF9 Acute myeloid leukemia (AML) model, bone marrow (BM) cells from 10 week old wild type mouse were extracted and enriched for cKit expressing cells (EasySep #18757) and incubated overnight in RPMI supplemented with 15% FCS L-Glutamine, Pen/Strep (Biological Industries, Israel) and stem cell factor (SCF), IL-3, IL-6 and TPO (Peprotech). The culture was infected with MSCV-MLL-AF9-IRES-GFP retrovirus construct containing supernatant medium for 4 hours, then growth medium was added and infected cells were incubated at 37° C. for additional 24 h. The culture was then injected I.V. into sub lethally irradiated (500 rad) mice. Upon detectable steady increase of GFP expressing cells in the mice peripheral blood (checked by FACS analysis) and rise in leukocyte numbers and immature cells (detected by Wright-Giemsa stained blood films), mice were sacrificed and their BM was transferred (1st BMT) to sublethally irradiated WT hosts. Upon emergence of AML disease mice were sacrificed and 50,000 BM cells were transplanted (2nd BMT) into WT host mice. GFP expressing cells were monitored in the peripheral blood and upon detecting >10% GFP^+ in PB (day 11 after BMT) mice were treated with A14 inhibitor (FIG. 7A). A14 was administered by oral gavage once a day at a dose of 20 mg/kg for 3 days followed by 10 mg/kg/day for 6 more days. The inhibitor was dissolved in 1% methyl cellulose with 0.1% Tween 80 and 0.2% Poly-ethylene glycol (Vehicle). Control mice were treated with the vehicle only. Mice were monitored daily for cachexia, lethargy, and ruff coats, and moribund mice were sacrificed. For a single dose experiment (FIG. 11A) A51 was administered by oral gavage at a single dose of 20 mg/kg and mice were sacrificed 16 hours following treatment.
Complete blood counts. Peripheral venous blood was obtained from the mouse facial vein using standard techniques and analyzed using the auto hematology analyzer BC-2800 (Mindray) per manufacturer's instructions.
Single-dose treatment effect of a CKI inhibitor in AML mice and PD-L1 expression. AML mice were prepared by inoculating MLL-AF9 oncogene-transduced bone marrow cells to C57/BL6 mice. MLL-AF9 fusion represents one of a poor prognosis human AML induced by chromosomal translocation. 30 days after leukemia inoculation, the recipient mice have high white blood cells (WBC) counts (×10 higher than a normal mouse), and harbor >95% leukemia blasts in the bone marrow and 50% of the peripheral WBC in these mice are AML blasts. These mice have splenomegaly and their bones are pale and fragile due to the acute leukemia (FIG. 12).

[3] = tested on: CML blast crisis mice; experiment: CML blast crisis mouse model (BCR-ABL); assay type: in vivo; details: oral 10 mg/kg once a day, day 9
Protocol: Generation of a mouse model of CML blast crisis and inhibitor studies in this model. To generate the BCR-ABL-inducible chronic myeloid leukemia (CML) model, bone marrow (BM) cells from 10 weeks wild type mouse were extracted and enriched for cKit expressing cells (EasySep #18757) and incubated overnight at 37° C. in RPMI growth medium supplemented with 15% FCS, L-Glutamine, Pen/Strep (Biological Industries, Israel) and stem cell factor (SCF), IL-3, IL-6 and TPO (Peprotcch). The culture was then infected with p210BCR-ABL-IRES-GFP retrovirus construct containing supernatant medium for 4 hours, then growth medium was added and infected cells were incubated at 37° C. for additional 24 h. […] Upon observing a fast steady increase of GFP-expressing cells in the peripheral blood of inoculated mice (by FACS) and rising numbers of leukocyte and immature cells (detected by Wright-Giemsa stained blood films), mice were sacrificed and their BM cells were transferred to new sublethally irradiated WT hosts; each such transfer was termed disease generation. […] Blast crisis development was readily detectable by a highly abnormal number of blast cells, more than 30% of white blood cells (WBC) in the peripheral blood (PB), and short time intervals between transfers. […] Mice were monitored daily for cachexia, weight loss, lethargy, and ruff coats, and moribund mice were sacrificed upon moribund. […]

For `Cn1ncc(-c2ccnc(N[C@H]3CC[C@H](N)CC3)n2)c1CC1CC1` [Compound A14, (1R, 4R)—N^1-(4-(5-(cyclopropylmethyl)-1-methyl-1H-pyrazol-4-yl)pyrimidin-2-yl)cyclohexane-1,4-diamine], the “DDR & p53 activity” value [1] was “+++ (+++ indicates maximal β-catenin or p53 stabilization at >2 μM)”, the “progression of AML, GFP+ leukocytes in peripheral blood (in words)” value [2] was “inhibitory effect” and the “leukemia cell burden in the peripheral blood and bone marrow (in words)” value [3] was “significantly reduces the leukemia cell burden”.
